Reference: patent publication US20230097580A1, “COMPOSITIONS AND METHODS FOR STIMULATING HAIR GROWTH” (Amplifica, Inc., priority 2020, published 2023)
Like-named read-outs stand apart in the source and are kept apart here.

System: dorsal skin of P53 mice
Conditions: for hair growth induction: summary of figures; for induction (of anagen / hair growth): 25, 50, 100 µg/mL injections, overall, two mice; for hair growth in injection spot: 3 µL on 3 consecutive days, 18 days after injection; for pigmentation at injection site: at P14
Text: Follow up experiments included lower HA concentrations (below 250 .mu·g/mL). A small incision was done using a thin needle (insulin syringe) to facilitate injection. […] In FIGS. 5-8, when looking at the back of the mouse with the mouse's head at the top, the control (1% BSA) injection is top left, the 25 .mu·g/ml injection is top right, the 100 .mu·g/ml injection is bottom right, and the 50 .mu·g/ml injection is bottom left.
FIGS. 5 and 6 show representative images of two mice, each of which received injections of low molecular weight HA. FIGS. 7 and 8 show representative images of two mice, each of which received injections of high molecular weight HA.
For high molecular weight the injection site was monitored for 18 days for full anagen.

Substance	hair growth induction (50 µg/mL)	hair growth induction (100 µg/mL)	induction (of anagen / hair growth)	hair growth in injection spot (FIG. 7 mouse, 50 µg/ml)	hair growth in injection spot (FIG. 7 mouse, 100 µg/ml)	hair growth in injection spot (FIG. 8 mouse, 25 µg/ml)	hair growth in injection spot (FIG. 8 mouse, 50 µg/ml)	pigmentation at injection site	anagen spot at injection site (25 µg/mL, mouse 2 (FIG. 6), only in one mouse)	hair growth in injection spot (FIG. 5 mouse, 25 µg/ml)	hair growth in injection spot (FIG. 5 mouse, 100 µg/ml)	hair growth in injection spot (FIG. 6 mouse, 25 µg/ml)	hair growth in injection spot (FIG. 6 mouse, 100 µg/ml)
hyaluronic acid [high molecular weight HA]	induces	induces	good induction	growth	growth	growth	growth	apparent					
hyaluronic acid [intermediate weight HA]			no induction										
hyaluronic acid [low molecular weight HA]		induced hair growth	good induction					apparent	nice anagen spot	growth	growth	growth	growth
